The text below walks through data of patent publication US20250001107A1, “BREATH-POWERED NASAL DEVICES FOR TREATMENT OF TRAUMATIC BRAIN INJURY (TBI), INCLUDING CONCUSSION, AND METHODS” (Oragenics, Inc., priority 2021, published 2025).

Data set [1] is described as follows: preclinical studies of neuroprotective effects. In kind it is in vivo.
Data set [2] relates to Animal models of concussion. In words: animal models of concussion, behavioral pathology. In kind it is in vivo.
A short description of data set [3]: lipophilicity. The format is physicochemical.
Data set [4] is described as follows: blood-brain barrier crossing.

With `CC(=O)[C@@H]1CCC2C3CCC4=CC(=O)CC[C@H]4C3CC[C@]21C` (single isomer, unassigned) [ent-19-norprogesterone, ent-19-norpregn-4-ene-3,20-dione], in data set [1], the “neuroprotective effects compared to related neurosteroids” value is reported as “equivalent, if not superior, neuroprotective effects compared to related neurosteroids”. Also, the “behavioral pathology associated with brain injury symptoms” value in data set [2] was “reduces the behavioral pathology associated with brain injury symptoms such as memory impairment, anxiety, and motor/sensory performance”. For the same compound, the lipophilicity result in data set [3] is “lipophilic”. Further, the “crossing of the blood-brain barrier” value in data set [4] is on record as “can easily cross the blood-brain barrier”.
